Test results as given in patent US20230192617A1, “AZABICYCLIC(THIO)AMIDES AS FUNGICIDAL COMPOUNDS” (Bayer CropScience Aktiengesellschaft, priority 2020, published 2023).

What was measured:
Sphaerotheca fuliginea = assay: In vivo preventive test on Sphaerotheca fuliginea (powdery mildew on cucurbits); conditions: Podosphaera fuliginea, 192 h; 500 ppm of active ingredient; preventive spray on gherkin; evaluated 8 days after inoculation; read-out: efficacy
How it was run: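 Young gherkin plants were sprayed with compound in DMSO/acetone/Tween 80 diluted in water. They were inoculated 24 h later with a spore suspension of Sphaerotheca fuliginea. Plants were then kept for 8 days at 20 °C and 70–80% relative humidity.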

Alternaria brassicae = assay: In vivo preventive test on Alternaria brassicae (leaf spot on radish or cabbage); conditions: 500 ppm of active ingredient, preventive spray on radish or cabbage, evaluated 3 to 4 days after inoculation, read-out: efficacy
How it was run: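 Young radish or cabbage plants were sprayed with compound dissolved in DMSO/acetone/Tween 80 and diluted in water; controls received solvent only. Inoculation by spraying A. brassicae spore suspension 24 h later, then 3–4 days at 20 °C and 100% relative humidity.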

Pyrenophora teres [1] = assay: In vivo preventive test on Pyrenophora teres (net blotch on barley); conditions: 240 h, 500 ppm of active ingredient, preventive spray on barley, evaluated 10 days after inoculation, read-out: efficacy
How it was run: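 Young barley plants sprayed preventively with compound formulated in DMSO/acetone/Tween 80 and diluted in water; controls got solvent only. Inoculated 24 hours later with P. teres spore suspension, then held 48 hours at 20° C, 100% RH and 8 days at 20° C, 70-80% RH.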

Septoria tritici = assay: B-9. Septoria tritici in vitro cell test; assay type: cell-based; conditions: Zymoseptoria tritici, 168 h; 20 ppm of active ingredient; 7 days incubation; liquid culture, absorbance; read-out: efficacy (inhibition of fungal growth)
Procedure: B-9. Septoria tritici In Vitro Cell Test [table] Fungicides were solubilized in DMSO and the solution used to prepare the required range of concentrations. The final concentration of DMSO used in the assay was ≤1%. A spore suspension of S. tritici was prepared and diluted to the desired spore density. Fungicides were evaluated for their ability to inhibit spore germination and mycelium growth in liquid culture assay. The compounds were added in the desired concentration to the culture medium with spores. After 7 days incubation, fungi-toxicity of compounds was determined by spectrometric measurement of mycelium growth. Inhibition of fungal growth was determined by comparing the absorbance values in wells containing the fungicides with the absorbance in control wells without fungicides.

Botrytis cinerea [2] = assay: B-11. Botrytis cinerea in vitro cell test; assay type: cell-based; conditions: 144 h, 20 ppm of active ingredient, 6 days incubation, liquid culture, absorbance, read-out: efficacy (inhibition of fungal growth)
How it was run: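 B. cinerea spores were grown in liquid culture with compound (DMSO ≤1% final). Mycelium growth was measured spectrometrically after 6 days, with inhibition taken as absorbance relative to untreated control wells.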

Pyrenophora teres [3] = assay: B-10. Pyrenophora teres in vitro cell test; assay type: cell-based; conditions: 144 h, 20 ppm of active ingredient, 6 days incubation, liquid culture, absorbance, read-out: efficacy (inhibition of fungal growth)
How it was run: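 Liquid-culture assay on a P. teres spore suspension with compounds added to the medium from DMSO solutions, final DMSO ≤1%. Mycelium growth read spectrometrically after 6 days. Inhibition calculated from absorbance against untreated control wells.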

[4] = Measurement of Log P values by HPLC on reversed phase columns (EEC directive 79/831 Annex V.A8); assay type: physicochemical; conditions: reversed phase HPLC column, method [a]: LC-UV, acidic range, 0.1% formic acid in water and acetonitrile as eluent
How it was run: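 Reversed-phase HPLC with UV detection per EEC 79/831 Annex V.A8, linear 10–95% acetonitrile gradient. Aqueous eluent: 0.1% formic acid (acidic), 0.001 M ammonium acetate (neutral), or 0.1% phosphoric acid (acidic); multiple values in one method joined by "+".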

[5] = tested on: Colletotrichum lindemuthianum; assay: B-8. Colletotrichum lindemuthianum in vitro cell test; assay type: cell-based; conditions: 144 h, 20 ppm of active ingredient, 6 days incubation, liquid culture, absorbance, read-out: efficacy (inhibition of fungal growth)
How it was run: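 Spore suspension of C. lindemuthianum in liquid medium exposed to DMSO-solubilized compounds (final DMSO ≤1%) for 6 days. Mycelial growth read by absorbance, with inhibition calculated relative to compound-free control wells.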

Alternaria alternata = Alternaria alternata in vitro cell test; assay type: cell-based; conditions: 120 h, 20 ppm of active ingredient, liquid culture, 5 days incubation, spectrometric measurement of mycelium growth, read-out: efficacy (inhibition of fungal growth)
How it was run: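 Liquid culture assay in which A. alternata spores in medium received DMSO-solubilized compound (final DMSO ≤1%). After 5 days, mycelium growth was measured spectrometrically. Inhibition was calculated against fungicide-free control wells.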

[6] = tested on: Colletotrichum lindemuthianum; assay: In vivo preventive test on Colletotrichum lindemuthianum (leaf spot on bean); conditions: 168 h, 500 ppm of active ingredient, preventive spray on bean, evaluated 7 days after inoculation, read-out: efficacy
How it was run: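 Young bean plants sprayed with compound in DMSO/acetone/Tween 80 diluted in water; solvent-only controls. Inoculated 24 h later with C. lindemuthianum spore suspension, then kept 24 h at 20 °C/100% RH and 6 days at 20 °C/90% RH.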

Botrytis cinerea [7] = assay: In vivo preventive test on Botrytis cinerea (grey mould); conditions: 500 ppm of active ingredient, preventive spray on gherkin or cabbage, evaluated 4 to 5 days after inoculation, read-out: efficacy
How it was run: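 Young gherkin or cabbage plants were sprayed with compound in DMSO/acetone/Tween 80 diluted in water, then inoculated 24 hours later with a B. cinerea spore suspension. Incubation lasted 4 to 5 days: gherkin at 17° C., 90% relative humidity; cabbage at 20° C., 100% relative humidity.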

Row | chromatographic logP [4] | Structure (SMILES) | pest or weed control at 500 ppm (Sphaerotheca fuliginea) [%] | pest or weed control at 500 ppm (Alternaria brassicae) [%] | pest or weed control at 500 ppm (Pyrenophora teres [1]) [%] | inhibition at 20 ppm (Septoria tritici) [%] | inhibition at 20 ppm (Botrytis cinerea [2]) [%] | inhibition at 20 ppm (Pyrenophora teres [3]) [%] | inhibition at 20 ppm [5] [%] | inhibition at 20 ppm (Alternaria alternata) [%] | pest or weed control at 500 ppm [6] [%] | pest or weed control at 500 ppm (Botrytis cinerea [7]) [%]
1 | 4.11 | Cc1cc(Cl)ccc1C(F)(F)CNC(=O)c1c(Oc2cccc(C(F)(F)F)c2)nnc2c1CCC2 [I-164] | 90 to 100 | 90 to 100 | 90 to 100 | 90 to 100 | 90 to 100 | 90 to 100 | 90 to 100 | 90 to 100 | 90 to 100 | 
2 | 4.69 | O=C(NCC(F)(F)c1ccc(Br)cc1Cl)c1c(Oc2cccc(C3CC3)c2F)nnc2c1CCCC2 [I-211] | 90 to 100 |  | 90 to 100 | 90 to 100 | 90 to 100 | 90 to 100 | 90 to 100 | 90 to 100 | 90 to 100 | 90 to 100
3 | 3.91 | Cc1ccc([C@@H](F)CNC(=O)c2c(Oc3cccc(C(F)(F)F)c3)nnc3c2OCC(C)(C)O3)c(C)c1 (racemic) [I-155] | 90 to 100 | 90 to 100 | 90 to 100 | 90 to 100 | 90 to 100 | 90 to 100 | 90 to 100 | 90 to 100 | 90 to 100 | 
4 | 4.11 | Cc1cc(Br)ccc1C(F)(F)CNC(=O)c1c(Oc2cccc(Cl)c2F)nnc2c1CCC2 [I-154] | 90 to 100 | 90 to 100 | 90 to 100 | 90 to 100 | 90 to 100 | 90 to 100 | 90 to 100 | 90 to 100 | 90 to 100 | 
5 | 4.23 | Cc1ccc(CCNC(=O)c2c(Oc3cccc(C(F)(F)F)c3)cnc3c2CCC3)c(C)c1 [I-157] | 90 to 100 | 90 to 100 | 90 to 100 | 90 to 100 | 90 to 100 | 90 to 100 | 90 to 100 | 90 to 100 | 90 to 100 | 
6 | 4.28 | O=C(NCC(F)(F)c1ccc(Br)cc1Cl)c1c(Oc2cccc(C(F)(F)F)c2)nnc2c1CCCC2 [I-207] | 90 to 100 |  | 90 to 100 | 90 to 100 | 90 to 100 | 90 to 100 | 90 to 100 | 90 to 100 | 90 to 100 | 90 to 100
7 | 4.55 | O=C(NC[C@H](F)c1ccc(Cl)cc1Cl)c1c(Oc2cccc(C(F)(F)F)c2)nnc2ccccc12 (racemic) [I-219] | 90 to 100 | 90 to 100 | 90 to 100 | 80 to 89 | 90 to 100 | 70 to 79 |  | 80 to 89 | 90 to 100 | 90 to 100
8 | 4.17 | Cc1cc(Br)ccc1C(F)(F)CNC(=O)c1c(Oc2cccc(C(F)(F)F)c2)nnc2c1CCC2 [I-206] | 90 to 100 |  | 90 to 100 | 90 to 100 | 90 to 100 | 90 to 100 | 90 to 100 | 90 to 100 | 90 to 100 | 90 to 100
